The values below come from patent US12023319B2, “Carboxylic acid aromatic amides” (priority 2016, dated 2024).

This experiment has as its target T1, human Bradykinin B1 receptor (Homo sapiens, UniProt P46663).
T1 construct: host or cells: CHO-K1
T1 sequence (P46663 1-353): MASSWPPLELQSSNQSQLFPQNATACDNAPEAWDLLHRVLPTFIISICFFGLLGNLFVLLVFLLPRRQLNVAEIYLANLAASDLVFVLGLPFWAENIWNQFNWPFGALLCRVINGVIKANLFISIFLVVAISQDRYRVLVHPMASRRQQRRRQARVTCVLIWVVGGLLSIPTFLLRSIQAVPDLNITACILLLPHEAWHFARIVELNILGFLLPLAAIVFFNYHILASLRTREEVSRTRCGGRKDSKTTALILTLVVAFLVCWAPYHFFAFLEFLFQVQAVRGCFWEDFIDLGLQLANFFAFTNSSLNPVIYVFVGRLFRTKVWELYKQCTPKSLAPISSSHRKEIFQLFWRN
Briefly: Calcium flux assay (FLIPR), CHO-K1 cells expressing human Bradykinin B1 receptor, absence of 0.1% BSA (hB1 free IC50). Format: cell-based. Particulars: absence of 0.1% BSA in assay buffer. On the procedure:
The potency to inhibit the Bradykinin B1 receptor was determined for the Compound Examples of this invention in a cell-based fluorescent calcium-mobilisation assay. The assay measures the ability of Compound Examples to inhibit Bradykinin B1 receptor agonist-induced increase of intracellular free Ca^2+ in the cell line expressing Bradykinin B1 receptor. Specifically, calcium indicator-loaded cells are pre-incubated in the absence or presence of different concentrations of Compound Examples followed by the stimulation with a selective Bradykinin B1 receptor agonist peptide. The change of the intracellular Ca^2+ concentration is monitored with a fluorescent plate reader FLIPR^TETRA® (Molecular Devices).
Calcium Flux Assays (FLIPR) with Cells Expressing Human Bradykinin B1 Receptor (hB1)
CHO-K1 cell line expressing human Bradykinin B1 receptor is purchased from Euroscreen (Gosselies, Belgium, with reference name hB1-D1). The cells are grown in Nutrient Mixture Ham's F12 (Sigma) containing 10% Foetal bovine serum (Sigma) and 400 μg/mL G418 (Sigma), 5 μg/mL puromycin (Sigma).
The effect of BSA on the potency of endothelin receptor antagonists have been described in the prior art (Wu-Wong, J. R. et al. (1997), JPET 281: 791-798). The teaching can be applied in analogy to testing the potency of Bradykinin B1 receptor antagonist in the FLIPR assays.
For the calcium flux assay, 80% confluent cells are detached from the culture vessels with Versene (Gibco), and seeded into 384-well plates (Cell binding Surface; Corning, NY; #3683) at a density of 15,000 cells per well. Cells are seeded in a volume of 50 μL in medium without antibiotics and incubated overnight in a humidified atmosphere with 5% CO2 at 37° C. […] The calcium indicator loaded cells are incubated at 37° C. for 2 hrs. Extracellular dye is then removed and each well is filled with 45 μL of assay buffer. Cell plates are kept in dark until used. Compound examples are assayed at 8 concentrations in triplicate. Serial 10-fold dilutions in 100% DMSO are made at a 100-times higher concentration than the final concentration, and then diluted 1:10 in assay buffer. 5 μL of each diluted compound is added to the well of cell plates (yielding final concentration with 1% DMSO), and incubated for 30 min at 28° C. before the addition of Bradykinin B1 receptor agonist on the FLIPR instrument.
The addition of agonist 20 μl per well to the assay plate is carried out on the FLIPR instrument while continuously monitoring Ca2+-dependent fluorescence at 538 nm. A peptide antagonist Lys-(Des-Arg-Leu)-Bradykinin (Bachem, Brackley) at 20 µM is used to determine the full inhibition as control.
Peak fluorescence is used to determine the response to agonist obtained at each concentration of Compound Examples by the following equation: % Response=100*(RFU(compound)−RFU(control))/(RFU(DMSO)−RFU(control))
RFU means relative fluorescence units.
Control means full inhibition by the peptide antagonist Lys-(Des-Arg-Leu)-Bradykinin at 20 µM.
The response values are plotted against the logarithm of the compound concentrations. The Compound Examples are tested in triplicates per plate and mean values are plotted in Excel XLfit to determine IC50 values, percentage of maximal inhibition and the Hill slopes.
In general terms: A change in cytosolic calcium serves as a functional read-out for many receptors and channels.
By IC50 is commonly meant the midpoint of a concentration-inhibition curve. For the compound `O=C(O)c1cc(NC(=O)C2(c3ccc(C(F)(F)F)cc3F)CC2)cc(F)c1-c1cnc(C2CCC2)s1` [Example 168, 2-(2-Cyclobutyl-1,3-thiazol-5-yl)-3-fluoro-5-[({1-[2-fluoro-4-(trifluoromethyl)phenyl]cyclopropyl}carbonyl)amino]benzoic acid], the IC50 was found to be 3.3 nM. In the case of `O=C(O)c1cc(NC(=O)C2(c3ccc(C(F)(F)F)cc3F)CC2)cc(Cl)c1-c1ccc(C(F)F)nc1` [Example 102, 3-Chloro-2-[6-(difluoromethyl)pyridin-3-yl]-5-[({1-[2-fluoro-4-(trifluoromethyl)phenyl]cyclopropyl}carbonyl)amino]benzoic acid] it was 110 nM.

For the compound `CC(F)(F)c1ccc(-c2ccc(NC(=O)C3(c4ccc(OC(F)(F)F)cc4F)CC3)cc2C(=O)O)cn1` [Example 32, 2-[6-(1,1-Difluoroethyl)pyridin-3-yl]-5-[({1-[2-fluoro-4-(trifluoromethoxy)phenyl]cyclopropyl}carbonyl)amino]benzoic acid], the IC50 was 190 nM.

Turning to `O=C(O)c1cc(NC(=O)C2(c3ccc(C(F)(F)F)cc3F)CC2)ccc1-c1cnc(C2CCC2)s1` [Example 148, 2-(2-Cyclobutyl-1,3-thiazol-5-yl)-5-[({1-[2-fluoro-4-(trifluoromethyl)phenyl]cyclopropyl}carbonyl)amino]benzoic acid], the IC50 amounted to 3.4 nM. The figure for `CC1(Cn2cc(-c3ccc(NC(=O)C4(c5ccc(C(F)(F)F)cc5F)CC4)cc3C(=O)O)cn2)CC1` [Example 151, 5-[({1-[2-Fluoro-4-(trifluoromethyl)phenyl]cyclopropyl}carbonyl)amino]-2-{1-[(1-methylcyclopropyl)methyl]-1H-pyrazol-4-yl}benzoic acid] is 22 nM. As for `O=C(O)c1cc(NC(=O)C2(c3ccc(C(F)(F)F)cc3F)CC2)ccc1-c1cn(C2CCC2)nc1F` [Example 45, 2-(1-Cyclobutyl-3-fluoro-1H-pyrazol-4-yl)-5-[({1-[2-fluoro-4-(trifluoromethyl)phenyl]cyclopropyl}carbonyl)amino]benzoic acid], the IC50 was 55 nM.

On to `O=C(O)c1cc(NC(=O)C2(c3ccc(C(F)(F)F)cc3F)CC2)ccc1-c1cnn(CC(F)(F)F)c1` [Example 34, 5-[({1-[2-Fluoro-4-(trifluoromethyl)phenyl]cyclopropyl}carbonyl)amino]-2-[1-(2,2,2-trifluoroethyl)-1H-pyrazol-4-yl]benzoic acid], for which the 50% inhibitory concentration (IC50) worked out at 31 nM. The figure for `CC[C@H](C)n1cc(-c2ccc(NC(=O)C3(c4ccc(OC(F)(F)F)cc4F)CC3)cc2C(=O)O)cn1` [Example 132, 2-{1-[(2S)-Butan-2-yl]-1H-pyrazol-4-yl}-5-[({1-[2-fluoro-4-(trifluoromethoxy)phenyl]cyclopropyl}carbonyl)amino]benzoic acid] is 56 nM. The figure for `CCn1cc(-c2ccc(NC(=O)C3(c4ccc(C(F)(F)F)cc4F)CC3)cc2C(=O)O)cn1` [Example 68, 2-(1-Ethyl-1H-pyrazol-4-yl)-5-[({1-[2-fluoro-4-(trifluoromethyl)phenyl]cyclopropyl}carbonyl)amino]benzoic acid] is 36 nM; for `O=C(O)c1cc(NC(=O)C2(c3ccc(C(F)(F)F)cc3F)CC2)ccc1-n1cc(C(F)(F)F)cn1` [Example 16, 5-[({1-[2-Fluoro-4-(trifluoromethyl)phenyl]cyclopropyl}carbonyl)amino]-2-[4-(trifluoromethyl)-1H-pyrazol-1-yl]benzoic acid] it is 2800 nM; for `CC[C@@H](C)n1cc(-c2ccc(NC(=O)C3(c4ccc(OC(F)(F)F)cc4F)CC3)cc2C(=O)O)cn1` [Example 134, 2-{1-[(2R)-Butan-2-yl]-1H-pyrazol-4-yl}-5-[({1-[2-fluoro-4-(trifluoromethoxy)phenyl]cyclopropyl}carbonyl)amino]benzoic acid] it is 44 nM. The figure for `O=C(O)c1cc(NC(=O)C2(c3ccc(C(F)(F)F)cc3F)CC2)ccc1-c1cnn(C2CCCCC2)c1` [Example 122, 2-(1-Cyclohexyl-1H-pyrazol-4-yl)-5-[({1-[2-fluoro-4-(trifluoromethyl)phenyl]cyclopropyl}carbonyl)amino]benzoic acid] is 13 nM; for `CC1CCC(C2(C(=O)Nc3cc(F)c(-c4cnn(C5CCC5)c4)c(C(=O)O)c3)CC2)CC1` (mixture of isomers) [Example 144, 2-(1-Cyclobutyl-1H-pyrazol-4-yl)-3-fluoro-5-({[1-(4-methylcyclohexyl)cyclopropyl]carbonyl}amino)benzoic acid] it is 320 nM. `O=C(O)c1cc(NC(=O)C2(c3ccc(C(F)(F)F)cc3F)CC2)cc(F)c1-c1cnn(CC(F)(F)F)c1` [Example 172, 3-Fluoro-5-[({1-[2-fluoro-4-(trifluoromethyl)phenyl]cyclopropyl}carbonyl)amino]-2-[1-(2,2,2-trifluoroethyl)-1H-pyrazol-4-yl]benzoic acid]: the IC50 worked out at 30 nM.

On to `CC1(Cn2cc(-c3ccc(NC(=O)C4(c5ccc(OC(F)(F)F)cc5F)CC4)cc3C(=O)O)cn2)CC1` [Example 152, 5-[({1-[2-Fluoro-4-(trifluoromethoxy)phenyl]cyclopropyl}carbonyl)amino]-2-{1-[(1-methylcyclopropyl)methyl]-1H-pyrazol-4-yl}benzoic acid], for which the IC50 was 8.1 nM. In the case of `O=C(O)c1cc(NC(=O)C2(c3ccc(Cl)cc3)CC2)cc(F)c1-c1cnn(C2CCC2)c1` [Example 35, 5-({[1-(4-Chlorophenyl)cyclopropyl]carbonyl}amino)-2-(1-cyclobutyl-1H-pyrazol-4-yl)-3-fluorobenzoic acid] it was 26 nM. The figure for `O=C(O)c1cc(NC(=O)C2(c3ccc(C(F)(F)F)cc3F)CC2)ccc1-n1ccc(CC(F)(F)F)n1` [Example 15, 5-[({1-[2-Fluoro-4-(trifluoromethyl)phenyl]cyclopropyl}carbonyl)amino]-2-[3-(2,2,2-trifluoroethyl)-1H-pyrazol-1-yl]benzoic acid] is 3600 nM; for `O=C(O)c1cc(NC(=O)C2(c3ccc(C(F)(F)F)cc3F)CC2)ccc1-c1cnn(C2CC2)c1` [Example 124, 2-(1-Cyclopropyl-1H-pyrazol-4-yl)-5-[({1-[2-fluoro-4-(trifluoromethyl)phenyl]cyclopropyl}carbonyl)amino]benzoic acid] it is 200 nM. In the case of `CC(F)(F)c1ccc(-c2ccc(NC(=O)C3(c4ccc(C(F)(F)F)cc4F)CC3)cc2C(=O)O)cn1` [Example 31, 2-[6-(1,1-Difluoroethyl)pyridin-3-yl]-5-[({1-[2-fluoro-4-(trifluoromethyl)phenyl]cyclopropyl}carbonyl)amino]benzoic acid] it was 130 nM; in that of `Cc1cc(NC(=O)C2(c3ccc(OC(F)(F)F)cc3F)CC2)cc(C(=O)O)c1-c1ccc(C(F)F)nc1` [Example 110, 2-[6-(Difluoromethyl)pyridin-3-yl]-5-[({1-[2-fluoro-4-(trifluoromethoxy)phenyl]cyclopropyl}carbonyl)amino]-3-methylbenzoic acid], 580 nM. For the compound `O=C(O)c1cc(NC(=O)C2(c3ccc(OC(F)(F)F)cc3F)CC2)ccc1-n1cc(C2CCC2)cn1` [Example 130, 2-(4-Cyclobutyl-1H-pyrazol-1-yl)-5-[({1-[2-fluoro-4-(trifluoromethoxy)phenyl]cyclopropyl}carbonyl)amino]benzoic acid], the IC50 turned out to be 590 nM.
